Values after ≈ are worked out from the molar mass of the structure shown.
How the values were obtained:
Type in all cases: cell-based
[1] = test system: Fusobacterium nucleatum JCM 6328; assay: MIC by agar plate dilution method, Fn-1; conditions: agar medium, 37° C., 72 hours, anaerobic conditions; for MIC: Fusobacterium nucleatum, JCM6328, read-out: MIC Fn-1 (paradentosis-related bacteria)
Method: (§1) The minimum inhibitory activities of the antimicrobial flavors of the invention on anaerobic oral bacteria were measured by an agar plate dilution method.
(§2) All the test strains were obtained from Riken (The Institute of Physical and Chemical Research). The names and abbreviations of the strains are shown in Table 1 below (The abbreviations are used in the following description).
(§3) Each test microorganism kept frozen (−80° C.) in glycerol at a concentration of 25% was thawed. A 100 μl portion of the suspension was inoculated into 10 ml of a liquid medium. A Gifu university anaerobic medium (GAM) (Nissui Pharmaceutical Co., Ltd) having added thereto Hemin (Tokyo Kasei) and Menadione (Sigma) was used for Su-1 and Fn-1. Schaedler Broth (BBL) having added thereto Hemin and Menadione was used for the other strains. The culture was anaerobically incubated at 37° C. for 72 hours by using BBL Gas Pack Anaerobic System. After the cultivation, the microbial cell suspension of Su-1 was 10-fold diluted to prepare an inoculum. The cultures of Fn-1 and Pg-1 were used as such as an inoculum. The cultures of Pt-1, Aa-1, and Av-1 were subjected to centrifugation, and the separated microbial cells were suspended in 2 ml of sterilized physiological saline to prepare the respective inoculums.
(§4) An agar medium prepared by adding 2% agar (Difco), Hemin, and Menadione to Trypticase Soy Broth (BBL) was used. A test sample (antimicrobial flavor) was dissolved in ethanol to prepare 2-fold serial dilutions. To 10 ml of the agar medium was added 100 μl of each dilution and stirred well. The agar medium was transferred to a petri dish (diameter: 9 cm) and solidified at room temperature. The solidified agar medium was inoculated with 5 μl of the inoculum by means of a multipoint inoculator (Microplanter MIT-P27, supplied by Sakuma Seisakusho), followed by culturing at 37° C. for 72 hours under anaerobic conditions. The growth of the test microorganism was compared with a blank petri dish (the agar medium to which 100 μl of ethanol had been added). The lowest sample concentration that inhibited growth was taken as MIC (ppm).
(§5) Antimicrobial activities (MIC; ppm) of the aromahygiene base (AHB) prepared in (1) and the antimicrobial flavor compositions prepared in (2) (Examples 2-1 to 2-3) and Comparative Examples 2-1 to 2-3 were measured in the same manner as in Example 1 (2).

[2] = test system: Streptococcus mutans JCM 5175; assay: MIC by agar plate dilution method, Su-1; conditions: agar medium, 37° C., 72 hours, anaerobic conditions; for MIC: Streptococcus mutans, JCM5175, read-out: MIC Su-1 (caries-related bacteria)
Method: as §1, §2, §3, §4, §5

[3] = test system: Actinomyces naeslundii JCM 8350; assay: MIC by agar plate dilution method, Aa-1; conditions: agar medium, 37° C., 72 hours, anaerobic conditions; for MIC: Actinomyces naeslundii, JCM8350, read-out: MIC Aa-1 (caries-related bacteria)
Method: as §1, §2, §3, §4, §5

[4] = test system: Actinomyces viscosus JCM 8352; assay: MIC by agar plate dilution method, Av-1; conditions: agar medium, 37° C., 72 hours, anaerobic conditions; for MIC: Actinomyces viscosus, JCM8352, read-out: MIC Av-1 (caries-related bacteria)
Method: as §1, §2, §3, §4, §5

[5] = test system: Prevotella intermedia JCM 6322; assay: MIC by agar plate dilution method, Pt-1; conditions: agar medium, 37° C., 72 hours, anaerobic conditions; for MIC: Prevotella intermedia, JCM6322, read-out: MIC Pt-1 (paradentosis-related bacteria)
Method: as §1, §2, §3, §4, §5

[6] = test system: Porphyromonas gingivalis JCM 8525; assay: MIC by agar plate dilution method, Pg-1; conditions: agar medium, 37° C., 72 hours, anaerobic conditions; for MIC: Porphyromonas gingivalis, JCM8525, read-out: MIC Pg-1 (paradentosis-related bacteria; head Fg-1 in Tables 2 and 3)
Method: as §1, §2, §3, §4, §5

Row | SMILES | MIC Fn-1 (paradentosis-related bacteria) [1] | MIC Su-1 (caries-related bacteria) [2] | MIC Aa-1 (caries-related bacteria) [3] | MIC Av-1 (caries-related bacteria) [4] | MIC Pt-1 (paradentosis-related bacteria) [5] | MIC Pg-1 (paradentosis-related bacteria; head Fg-1 in Tables 2 and 3) [6] | MIC [1] | MIC [2] | MIC [3] | MIC [4] | MIC [5] | MIC [6]
1 | CC(C=O)Cc1ccc2c(c1)OCO2 (stereo not drawn) [Helional] | 1000 ppm | 1000 ppm | 250 ppm | 500 ppm | 1000 ppm | 125 ppm | – | – | – | – | – | –
2 | COc1ccccc1C=CC=O [o-Methoxycinnamic aldehyde] | 250 ppm | 250 ppm | 250 ppm | 250 ppm | 62.5 ppm | 7.8 ppm | – | – | – | – | – | –
3 | CCCCCCCCCO [1-nonanol] | – | – | – | – | – | – | 500 µg/mL (≈ 3470 µM) | 1000 µg/mL (≈ 6930 µM) | 500 µg/mL (≈ 3470 µM) | 500 µg/mL (≈ 3470 µM) | 250 µg/mL (≈ 1730 µM) | 250 µg/mL (≈ 1730 µM)
4 | CC(C=O)Cc1ccc(C(C)(C)C)cc1 (stereo not drawn) [Lilial] | 500 ppm | 500 ppm | 125 ppm | 500 ppm | 62.5 ppm | 62.5 ppm | – | – | – | – | – | –
5 | CC/C(=C\C[C@H]1CC=C(C)C1(C)C)CO [Levosandol] | 62.5 ppm | 125 ppm | 62.5 ppm | 62.5 ppm | 31.3 ppm | 31.3 ppm | – | – | – | – | – | –
6 | CCCc1ccc(O)c(OC)c1 [Dihydroeugenol] | 500 ppm | 1000 ppm | 500 ppm | 500 ppm | 62.5 ppm | 62.5 ppm | – | – | – | – | – | –
7 | C=CC(C)(O)CC/C=C(\C)CCC=C(C)C (stereo not drawn) [Neroridol] | 50 ppm | 500 ppm | 125 ppm | 125 ppm | 31.3 ppm | 31.3 ppm | – | – | – | – | – | –
8 | CC(C)=CCC/C(C)=C/CCC(C)CCO (stereo not drawn) [Dihydrofarnesol] | 31.3 ppm | 31.3 ppm | 31.3 ppm | 62.5 ppm | 7.8 ppm | 7.8 ppm | – | – | – | – | – | –
9 | C=CCCCCCCCCCO [10-undecen-1-ol] | – | – | – | – | – | – | 125 µg/mL (≈ 734 µM) | 250 µg/mL (≈ 1470 µM) | 125 µg/mL (≈ 734 µM) | 125 µg/mL (≈ 734 µM) | 31.3 µg/mL (≈ 184 µM) | 31.3 µg/mL (≈ 184 µM)
10 | O=C1CCCCCCCCCCC(=O)OCCO1 [Ethylenedodecanedioate] | >1000 ppm | >1000 ppm | >1000 ppm | 250 ppm | >1000 ppm | 31.3 ppm | – | – | – | – | – | –
11 | O=C1CCCC=CCCCCCCCCCC1 [5-cyclohexadecen-1-one] | – | – | – | – | – | – | > 1000 µg/mL | > 1000 µg/mL | > 1000 µg/mL | > 1000 µg/mL | 31.3 µg/mL (≈ 132 µM) | 15.6 µg/mL (≈ 66 µM)
12 | CCCCCCCCC=CCC=O [3-Dodecenal] | – | – | – | – | – | – | 250 µg/mL (≈ 1370 µM) | 1000 µg/mL (≈ 5490 µM) | 500 µg/mL (≈ 2740 µM) | 500 µg/mL (≈ 2740 µM) | 31.3 µg/mL (≈ 172 µM) | 62.5 µg/mL (≈ 343 µM)
13 | O=C1CCCCCCCCCCCCCCO1 [Cyclopentadecanolide] | >1000 ppm | >1000 ppm | >1000 ppm | >1000 ppm | <62.5 ppm | <62.5 ppm | – | – | – | – | – | –

From patent US20080125496A1, “ANTIMICROBIAL FLAVOR AND ORAL CARE COMPOSITION CONTAINING THE SAME” (TAKASAGO INTERNATIONAL CORPORATION, priority 2001, published 2008)
